Test results reported in paper PMC10150354, “Linearization of the Brevicidine and Laterocidine Lipopeptides Yields Analogues That Retain Full Antibacterial Activity” (Journal of Medicinal Chemistry, 2023).
In brackets after ≈: the same amount, converted by molar mass. Where a SMILES comes first, the peptide text is derived from it. Bridges are numbered along the chain shown (N, C = ends). [ ]: non-standard residue; d: D form. The star is where a group is joined. ξ: configuration not given here. Octanoyl(7-Me) = CC(C)CCCCCC(=O)*; Hexanoyl(4ξ-Me) = CCC(C)CCC(=O)*; dOrn = NCCC[C@@H](N)C(=O)O; Orn = NCCC[C@H](N)C(=O)O; OAll = C=CCO*

Assays:
[1] = system: K. pneumoniae ATCC 13883; format: cell-based, Klebsiella pneumoniae; details: microbroth dilution per CLSI, MHB, 18 h at 37 °C, visual inspection, three technical replicates
Protocol: (§1) Linear laterocidine (LL-OH, 4) and linear brevicidine (LB-OH, 5) were first synthesized by Fmoc SPPS, starting from 2-chlorotrityl (2-CT) chloride resin. The antibacterial activity of these peptides was then compared to brevicidine (1) and laterocidine (2) using minimum inhibitory concentration (MIC)/microbroth dilution assays (Table 1). The MICs of all peptides were determined against a panel of Gram-negative and Gram-positive ESKAPE pathogens. Additionally, a strain of E. coli carrying the mcr-1 gene was included in the panel. The mcr-1 gene is a transferrable plasmid that confers resistance against colistin, a last-resort antibiotic for Gram-negative infections, by reducing the overall negative charge of lipopolysaccharide (LPS) through modification of lipid A with phosphoethanolamine. The propensity for cationic antibiotics to bind to the cell membrane is therefore reduced. This gene has been observed in more than 27 bacterial species over six continents.[26] The spread of the mcr-1 gene could render colistin ineffectual; therefore, novel antibacterials are urgently required to overcome this form of resistance.
(§2) All minimum inhibitory concentrations (MICs) were determined according to Clinical and Laboratory Standards Institute (CLSI) guidelines. Blood agar plates were inoculated with glycerol stocks of E. coli ATCC 25922, K. pneumoniae ATCC 13883, A. baumannii ATCC 17961, P. aeruginosa PAO1, and S. aureus USA300. The inoculated agar plates were then incubated for 16 h at 37 °C. Individually grown colonies were subsequently used to inoculate 5 mL aliquots of TSB that were then incubated at 37 °C with shaking at 220 rpm. E. coli 25922 MCR-1 glycerol stock was used to inoculate 5 mL of TSB supplemented with kanamycin that was then incubated for 16 h at 37 °C with shaking at 220 rpm. The next day the culture was diluted 100-fold in TSB supplemented with kanamycin and incubated at 37 °C with shaking at 220 rpm. In parallel, the lipopeptide antibiotics DMSO stocks to be assessed were serially diluted with MHB in polypropylene 96-well plates (50 μL in each well). Colistin sulfate stocks were dissolved in water before being diluted with MHB. Aliquots of the inoculated TSB were incubated until an OD600 of around 0.5 was reached. The bacterial suspensions were then diluted with MHB (2 × 10^5 CFU/mL) and added to the microplates containing the test compounds (50 μL to each well). The well plates were sealed with an adhesive membrane and after 18 h of incubation at 37 °C with shaking at 600 rpm, the wells were visually inspected for bacterial growth. MIC values reported are based on three technical replicates and defined as the lowest concentration of the compound that prevented visible growth of bacteria.

[2] = system: A. baumannii ATCC 17961; format: cell-based, Acinetobacter baumannii; details: microbroth dilution per CLSI, MHB, 18 h at 37 °C, visual inspection, three technical replicates
Protocol: as §1, §2

[3] = system: S. aureus USA300; format: cell-based, Staphylococcus aureus; details: microbroth dilution per CLSI, MHB, 18 h at 37 °C, visual inspection, three technical replicates
Protocol: as §1, §2

[4] = system: E. coli ATCC 25922; format: cell-based, Escherichia coli; details: for Antibacterial activity (MIC) E. coli ATCC 25922: microbroth dilution per CLSI, MHB, 18 h at 37 °C, visual inspection, three technical replicates; for MIC (µg/mL) against E. coli (ATCC 25922): (Supplement 2)
Protocol: as §1, §2

[5] = system: E. coli (MCR-1); format: cell-based, Escherichia coli; details: microbroth dilution per CLSI, MHB, 18 h at 37 °C, visual inspection, three technical replicates, E. coli 25922 carrying mcr-1
Protocol: as §1, §2

[6] = system: P. aeruginosa PAO1; format: cell-based, Pseudomonas aeruginosa; details: microbroth dilution per CLSI, MHB, 18 h at 37 °C, visual inspection, three technical replicates
Protocol: as §1, §2

| SMILES | Antibacterial activity (MIC) K. pneumoniae ATCC 13883 [1] | Antibacterial activity (MIC) A. baumannii ATCC 17961 [2] | Antibacterial activity (MIC) S. aureus USA300 [3] | Antibacterial activity (MIC) E. coli ATCC 25922 [4] | Antibacterial activity (MIC) E. coli (MCR-1) [5] | Antibacterial activity (MIC) P. aeruginosa PAO1 [6] | MIC (µg/mL) against E. coli (ATCC 25922) [4] |
| --- | --- | --- | --- | --- | --- | --- | --- |
| CCC(C)CCC(=O)N[C@H](CC(N)=O)C(=O)N[C@H](Cc1ccc(O)cc1)C(=O)N[C@H](Cc1c[nH]c2ccccc12)C(=O)N[C@H](CCCN)C(=O)N[C@@H](CCCN)C(=O)NCC(=O)N[C@H](CCCN)C(=O)N[C@@H](Cc1c[nH]c2ccccc12)C(=O)N[C@H](C(=O)N[C@H](C(=O)NCC(=O)N[C@@H](CO)C(=O)O)[C@@H](C)CC)[C@@H](C)O (stereo partly drawn) [LB-OH (5)] ({Hexanoyl(4ξ-Me)}-[dN][dY][dW][dOrn][Orn]G[dOrn]WTIGS-OH) | >32 µg/mL | >32 µg/mL | >32 µg/mL | >32 µg/mL | >32 µg/mL | 16 µg/mL |  |
| CC[C@H](C)[C@H](NC(=O)[C@@H](NC(=O)[C@H](Cc1c[nH]c2ccccc12)NC(=O)[C@@H](CCCN)NC(=O)CNC(=O)[C@H](CCCN)NC(=O)[C@@H](CCCN)NC(=O)[C@@H](Cc1c[nH]c2ccccc12)NC(=O)[C@@H](C)NC(=O)[C@@H](CO)NC(=O)CCCCCC(C)C)[C@@H](C)O)C(=O)N[C@@H](CC(N)=O)C(=O)NCC(=O)NCC(N)=O [LL(D-Ala2)-NH2 (30)] ({Octanoyl(7-Me)}-[dS][dA][dW][dOrn][Orn]G[dOrn]WTINGG-NH2) | >32 µg/mL | >32 µg/mL | >32 µg/mL | 32 µg/mL | 32 µg/mL | 16 µg/mL |  |
| CC[C@H](C)[C@H](NC(=O)[C@H](CC(C)C)NC(=O)[C@H](Cc1c[nH]c2ccccc12)NC(=O)[C@@H](CCCN)NC(=O)CNC(=O)[C@H](CCCN)NC(=O)[C@@H](CCCN)NC(=O)[C@@H](Cc1c[nH]c2ccccc12)NC(=O)[C@@H](Cc1ccc(O)cc1)NC(=O)[C@@H](CO)NC(=O)CCCCCC(C)C)C(=O)N[C@@H](CC(N)=O)C(=O)NCC(=O)NCC(N)=O [LL(Leu9)-NH2 (42)] ({Octanoyl(7-Me)}-[dS][dY][dW][dOrn][Orn]G[dOrn]WLINGG-NH2) | 8 µg/mL | 4 µg/mL | >32 µg/mL | 4 µg/mL | 8 µg/mL | 8 µg/mL | 4 µg/mL (≈ 2.45 µM) |
| CC[C@H](C)[C@H](NC(=O)[C@@H](NC(=O)[C@H](Cc1c[nH]c2ccccc12)NC(=O)[C@@H](CCCN)NC(=O)CNC(=O)[C@H](CCCN)NC(=O)[C@@H](CCCN)NC(=O)[C@@H](Cc1c[nH]c2ccccc12)NC(=O)[C@@H](Cc1ccc(O)cc1)NC(=O)[C@@H](CO)NC(=O)CCCCCC(C)C)[C@@H](C)O)C(=O)N[C@@H](CC(N)=O)C(N)=O [Δ12–13LL-NH2 (10)] ({Octanoyl(7-Me)}-[dS][dY][dW][dOrn][Orn]G[dOrn]WTIN-NH2) | 8 to 16 µg/mL | 4 µg/mL | >32 µg/mL | 4 µg/mL | 8 µg/mL | 4 µg/mL |  |
| CC[C@H](C)[C@H](NC(=O)[C@H](CO)NC(=O)[C@H](Cc1c[nH]c2ccccc12)NC(=O)[C@@H](CCCN)NC(=O)CNC(=O)[C@H](CCCN)NC(=O)[C@@H](CCCN)NC(=O)[C@@H](Cc1c[nH]c2ccccc12)NC(=O)[C@@H](Cc1ccc(O)cc1)NC(=O)[C@@H](CO)NC(=O)CCCCCC(C)C)C(=O)N[C@@H](CC(N)=O)C(=O)NCC(=O)NCC(N)=O [LL(Ser9)-NH2 (46)] ({Octanoyl(7-Me)}-[dS][dY][dW][dOrn][Orn]G[dOrn]WSINGG-NH2) | 4 µg/mL | 8 µg/mL | >32 µg/mL | 4 µg/mL | 8 µg/mL | 4 µg/mL | 4 µg/mL (≈ 2.49 µM) |
| CC[C@H](C)[C@H](NC(=O)[C@@H](NC(=O)[C@H](Cc1c[nH]c2ccccc12)NC(=O)[C@@H](CCCN)NC(=O)CNC(=O)[C@H](CCCN)NC(=O)[C@@H](CCCN)NC(=O)[C@@H](Cc1c[nH]c2ccccc12)NC(=O)[C@@H](Cc1ccc(O)cc1)NC(=O)[C@@H](CO)NC(=O)CCCCCC(C)C)[C@@H](C)O)C(=O)N[C@@H](C)C(=O)NCC(=O)NCC(N)=O [LL(Ala11)-NH2 (39)] ({Octanoyl(7-Me)}-[dS][dY][dW][dOrn][Orn]G[dOrn]WTIAGG-NH2) | 8 µg/mL | 8 µg/mL | >32 µg/mL | 8 µg/mL | 8 µg/mL | 4 µg/mL |  |
| C=CCOC(=O)CC[C@H](NC(=O)[C@H](Cc1c[nH]c2ccccc12)NC(=O)[C@@H](CCCN)NC(=O)CNC(=O)[C@H](CCCN)NC(=O)[C@@H](CCCN)NC(=O)[C@@H](Cc1c[nH]c2ccccc12)NC(=O)[C@@H](Cc1ccc(O)cc1)NC(=O)[C@@H](CC(N)=O)NC(=O)CCC(C)CC)C(=O)N[C@H](C(=O)NCC(N)=O)[C@@H](C)CC (stereo partly drawn) [Δ12LB (Glu[OAll]9)-NH2 (62)] ({Hexanoyl(4ξ-Me)}-[dN][dY][dW][dOrn][Orn]G[dOrn]WE(OAll)IG-NH2) | 4 µg/mL | 8 µg/mL | >32 µg/mL | 4 µg/mL | 8 µg/mL | 2 µg/mL | 4 µg/mL (≈ 2.64 µM) |
| CC[C@H](C)[C@H](NC(=O)[C@@H](NC(=O)[C@H](Cc1c[nH]c2ccccc12)NC(=O)[C@@H](CCCN)NC(=O)CNC(=O)[C@H](C)NC(=O)[C@@H](CCCN)NC(=O)[C@@H](Cc1c[nH]c2ccccc12)NC(=O)[C@@H](Cc1ccc(O)cc1)NC(=O)[C@@H](CO)NC(=O)CCCCCC(C)C)[C@@H](C)O)C(=O)N[C@@H](CC(N)=O)C(=O)NCC(=O)NCC(N)=O [LL(Ala5)-NH2 (33)] ({Octanoyl(7-Me)}-[dS][dY][dW][dOrn]AG[dOrn]WTINGG-NH2) | >32 µg/mL | >32 µg/mL | >32 µg/mL | 32 µg/mL | >32 µg/mL | 32 µg/mL |  |
| CCC(C)CCC(=O)N[C@H](CC(N)=O)C(=O)N[C@H](Cc1ccc(O)cc1)C(=O)N[C@H](Cc1c[nH]c2ccccc12)C(=O)N[C@H](CCCN)C(=O)N[C@@H](CCCN)C(=O)NCC(=O)N[C@H](CCCN)C(=O)N[C@@H](Cc1c[nH]c2ccccc12)C(=O)N[C@@H]1C(=O)N[C@@H]([C@@H](C)CC)C(=O)NCC(=O)N[C@@H](CO)C(=O)O[C@@H]1C (stereo partly drawn) [Brev (1), brevicidine] ({Hexanoyl(4ξ-Me)}-[dN][dY][dW][dOrn][Orn]G[dOrn]WTIGS; ester 9-C) | 2 µg/mL | 4 µg/mL | >32 µg/mL | 4 µg/mL | 4 µg/mL | 8 µg/mL |  |
